Measured values taken from the supplement of paper PMC10307832.

Legend:
Test in all cases: relative viability (nuclei count vs DMSO), 5 days (fraction); higher = more cells survive
Ruxolitinib + Pemetrexed = compound: N#CC[C@H](C1CCCC1)n1cc(-c2ncnc3[nH]ccc23)cn1 [Ruxolitinib] + Nc1nc2[nH]cc(CCc3ccc(C(=O)N[C@@H](CCC(=O)O)C(=O)O)cc3)c2c(=O)[nH]1 [Pemetrexed] (partner 0.2 µM)
Procedure, shortened: (§1)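 For relative viability, nuclei counts in treated wells were divided by those in vehicle wells. Lung cancer cell lines had been pin-tool dosed in 1536-well plates the day after seeding and cultured for 5 days, then fixed and stained in one step (final 0.05% Triton X-100, 1% formaldehyde, 1 ug/ml Hoechst) and imaged at 4×. Doses were one drug alone or a fixed anchor-drug dose plus five library-drug doses (not always all listed) in √10 steps, and values are duplicate-plate medians.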

Ruxolitinib + OSI-027 = compound: N#CC[C@H](C1CCCC1)n1cc(-c2ncnc3[nH]ccc23)cn1 [Ruxolitinib] + COc1cccc2cc(-c3nc([C@H]4CC[C@H](C(=O)O)CC4)n4ncnc(N)c34)[nH]c12 [OSI-027] (partner 0.5 µM)
Procedure, shortened: as §1

Ruxolitinib + AZD7762 = compound: N#CC[C@H](C1CCCC1)n1cc(-c2ncnc3[nH]ccc23)cn1 [Ruxolitinib] + NC(=O)Nc1cc(-c2cccc(F)c2)sc1C(=O)N[C@H]1CCCNC1 [AZD7762] (partner 0.2 µM)
Procedure, shortened: as §1

Vismodegib + Linsitinib = compound: CS(=O)(=O)c1ccc(C(=O)Nc2ccc(Cl)c(-c3ccccn3)c2)c(Cl)c1 [Vismodegib] + C[C@]1(O)C[C@@H](c2nc(-c3ccc4ccc(-c5ccccc5)nc4c3)c3c(N)nccn32)C1 [Linsitinib] (partner 1 µM)
Procedure, shortened: as §1

Row | Cell Line | relative viability (Ruxolitinib + Pemetrexed; first compound 0.08 µM) | relative viability (Ruxolitinib + Pemetrexed; first compound 0.253 µM) | relative viability (Ruxolitinib + Pemetrexed; first compound 0.8 µM) | relative viability (Ruxolitinib + Pemetrexed; first compound 2.53 µM) | relative viability (Ruxolitinib + Pemetrexed; first compound 8 µM) | relative viability (Ruxolitinib + OSI-027; first compound 0.08 µM) | relative viability (Ruxolitinib + OSI-027; first compound 0.253 µM) | relative viability (Ruxolitinib + OSI-027; first compound 0.8 µM) | relative viability (Ruxolitinib + OSI-027; first compound 2.53 µM) | relative viability (Ruxolitinib + OSI-027; first compound 8 µM) | relative viability (Ruxolitinib + AZD7762; first compound 0.08 µM) | relative viability (Ruxolitinib + AZD7762; first compound 0.253 µM) | relative viability (Ruxolitinib + AZD7762; first compound 0.8 µM) | relative viability (Ruxolitinib + AZD7762; first compound 2.53 µM) | relative viability (Ruxolitinib + AZD7762; first compound 8 µM) | relative viability (Vismodegib + Linsitinib; first compound 0.08 µM) | relative viability (Vismodegib + Linsitinib; first compound 0.253 µM) | relative viability (Vismodegib + Linsitinib; first compound 0.8 µM) | relative viability (Vismodegib + Linsitinib; first compound 2.53 µM) | relative viability (Vismodegib + Linsitinib; first compound 8 µM)
1 | SW 900 | 0.467 | 0.493 | 0.485 | 0.466 | 0.532 | 0.552 | 0.495 | 0.757 | 0.585 | 0.496 | 0.656 | 0.525 | 0.722 | 0.891 | 0.833 |  |  |  |  | 
2 | NCI-H358 | 0.174 | 0.152 | 0.177 | 0.163 | 0.126 | 0.417 | 0.654 | 0.754 | 0.406 | 0.565 | 0.5 | 0.653 | 0.504 | 0.404 | 0.445 | 0.777 | 0.667 | 0.712 | 0.817 | 0.765
3 | ChaGo-K-1 | 0.255 | 0.263 | 0.26 | 0.256 | 0.246 | 0.698 | 0.436 | 0.544 | 0.524 | 0.545 | 0.909 | 0.853 | 0.869 | 0.834 | 0.703 |  |  |  |  | 
4 | NCI-H1755 | 0.459 | 0.448 | 0.414 | 0.407 | 0.42 | 0.748 | 0.732 | 0.683 | 0.606 | 0.566 | 0.497 | 0.465 | 0.573 | 0.471 | 0.343 | 0.926 | 0.969 | 1.02 | 1 | 0.999
5 | LCLC-103H | 0.454 | 0.474 | 0.45 | 0.46 | 0.455 | 0.497 | 0.394 | 0.48 | 0.45 | 0.488 | 0.829 | 0.783 | 0.798 | 0.836 | 0.614 | 0.938 | 1.05 | 0.988 | 1.05 | 1.04
6 | HCC-827 |  | 0.249 | 0.231 | 0.258 | 0.274 |  | 0.516 | 0.586 | 0.537 | 0.714 |  | 0.178 | 0.238 | 0.236 | 0.308 | 0.926 | 0.906 | 0.949 | 0.896 | 1.04
7 | HCC-44 | 0.632 | 0.694 | 0.646 | 0.571 | 0.641 | 0.537 | 0.426 | 0.634 | 0.457 | 0.333 | 0.947 | 1.05 | 1 | 0.994 | 1.05 | 0.668 | 0.581 | 0.66 | 0.715 | 0.71
8 | NCI-H727 |  |  |  |  |  | 0.557 | 0.482 | 0.817 | 0.472 | 0.524 | 0.701 | 0.461 | 0.587 | 0.8 | 0.979 | 0.336 | 0.319 | 0.286 | 0.376 | 0.239
9 | NCI-H1563 | 0.724 | 0.744 | 0.892 | 0.774 | 0.544 | 0.803 | 0.721 | 0.714 | 0.658 | 0.675 |  |  |  |  |  | 1.17 | 1.34 | 1.26 | 1.01 | 1.2
